What is called IC50 is the midpoint of a concentration-inhibition curve.

Sequence of human TRPA1 (O75762 whole entry): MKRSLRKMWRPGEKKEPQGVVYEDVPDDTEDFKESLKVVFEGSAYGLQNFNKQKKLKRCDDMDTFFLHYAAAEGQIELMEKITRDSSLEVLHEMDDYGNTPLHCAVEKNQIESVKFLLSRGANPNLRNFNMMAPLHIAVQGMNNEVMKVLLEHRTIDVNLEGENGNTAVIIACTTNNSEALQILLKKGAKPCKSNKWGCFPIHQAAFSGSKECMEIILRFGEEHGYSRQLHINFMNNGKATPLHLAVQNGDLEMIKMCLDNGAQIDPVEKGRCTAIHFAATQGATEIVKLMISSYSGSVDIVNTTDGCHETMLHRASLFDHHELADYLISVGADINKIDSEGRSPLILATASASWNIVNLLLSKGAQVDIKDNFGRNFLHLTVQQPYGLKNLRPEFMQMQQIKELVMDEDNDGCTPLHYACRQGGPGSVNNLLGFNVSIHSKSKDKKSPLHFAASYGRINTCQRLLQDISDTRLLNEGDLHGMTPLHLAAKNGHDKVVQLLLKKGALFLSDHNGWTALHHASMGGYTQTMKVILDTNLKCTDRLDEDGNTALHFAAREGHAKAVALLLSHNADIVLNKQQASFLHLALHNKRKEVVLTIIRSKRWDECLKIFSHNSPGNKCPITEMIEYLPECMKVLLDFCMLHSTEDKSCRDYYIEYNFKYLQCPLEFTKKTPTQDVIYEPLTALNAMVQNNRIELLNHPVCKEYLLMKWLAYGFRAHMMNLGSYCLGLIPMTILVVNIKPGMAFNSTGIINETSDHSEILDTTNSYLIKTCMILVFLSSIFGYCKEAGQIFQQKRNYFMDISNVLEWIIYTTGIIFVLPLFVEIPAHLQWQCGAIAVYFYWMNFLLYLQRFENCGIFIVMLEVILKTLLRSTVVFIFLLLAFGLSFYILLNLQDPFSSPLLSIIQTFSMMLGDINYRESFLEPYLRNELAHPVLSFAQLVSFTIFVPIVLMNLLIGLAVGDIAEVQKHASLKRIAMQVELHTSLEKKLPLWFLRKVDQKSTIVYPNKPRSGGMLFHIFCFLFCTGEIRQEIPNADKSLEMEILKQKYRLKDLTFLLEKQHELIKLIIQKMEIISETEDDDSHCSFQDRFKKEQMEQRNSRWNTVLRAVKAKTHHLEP

The target of this assay is human TRPA1 (Homo sapiens (Human), UniProt O75762). In words: FLIPR Tetra calcium influx assay, block of cinnamaldehyde-induced calcium influx in CHO cells expressing TRPA1 (human). It is filed as cell-based. As to conditions: 20 min compound incubation, 75 uM cinnamaldehyde (~EC80), Hill coefficient fixed to 1.5, read-out: hTRPA1 AUC IC50. The essentials:
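CHO cells loaded with calcium dye, preincubated with compounds 20 min at room temperature in HBSS/20 mM HEPES pH 7.4 with 0.02% BSA. Channels activated by ~EC80 cinnamaldehyde (75 uM human, 45 uM rat); block of calcium influx read on FLIPR Tetra, IC50 fitted with fixed Hill coefficient.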
Turning to `CNc1nc(C(F)(F)F)ccc1-c1cc(CNC(=O)[C@@H]2C[C@@H](F)CN2S(=O)(=O)c2ccc(F)cc2)ccn1` [Example 179, (2S,4R)-4-fluoro-1-(4-fluorophenyl)sulfonyl-N-[[2-[2-(methylamino)-6-(trifluoromethyl)-3-pyridyl]-4-pyridyl]methyl]pyrrolidine-2-carboxamide], the IC50 was found to be 0.062 µM.

Consider `O=C(NCc1cc(-c2ccc(OC(F)F)cc2)ncn1)[C@@H]1C[C@@H](F)CN1S(=O)(=O)c1ccc(F)cc1` [Example 64, (2S,4R)—N-[[6-[4-(difluoromethoxy)phenyl]pyrimidin-4-yl]methyl]-4-fluoro-1-(4-fluorophenyl)sulfonyl-pyrrolidine-2-carboxamide], for which the IC50 came to 0.041 µM.

`O=C(NCc1cc(-c2cnc(C(F)(F)F)nc2)ccc1F)[C@@H]1[C@H]2C[C@H]2CN1S(=O)(=O)c1ccc(F)cc1` [Example 183, (1S,2S,5R)—N-(2-fluoro-5-(2-(trifluoromethyl)pyrimidin-5-yl)benzyl)-3-((4-fluorophenyl)sulfonyl)-3-azabicyclo[3.1.0]hexane-2-carboxamide]: the IC50 came to 0.003 µM.

Consider `C[C@@]1(F)C[C@@H](C(=O)NCc2cc(-c3ccc(C(F)(F)F)nc3)ncn2)N(S(=O)(=O)c2ccc(F)cc2)C1` (single isomer, unassigned) [Example 107], for which the IC50 stood at 0.09 µM.

In the case of `O=C(NCc1ccnc(-c2ccc(OC(F)(F)F)cc2)c1)[C@@H]1C[C@@H](F)CN1S(=O)(=O)c1ccc(F)cc1` [Example 159, (2S,4R)-4-fluoro-1-(4-fluorophenyl)sulfonyl-N-[[2-[4-(trifluoromethoxy)phenyl]-4-pyridyl]methyl]pyrrolidine-2-carboxamide], the IC50 was found to be 0.018 µM.

Take `Cc1nc(CNC(=O)[C@@H]2C[C@@H](F)CN2S(=O)(=O)c2ccc(F)cc2)cc(-c2ccc(C(F)(F)F)nc2)n1` [Example 152, (2S,4R)-4-fluoro-1-(4-fluorophenylsulfonyl)-N-((2-methyl-6-(6-(trifluoromethyl)pyridin-3-yl)pyrimidin-4-yl)methyl)pyrrolidine-2-carboxamide]: the IC50 is 0.163 µM.

On to `C[C@@]1(F)C[C@@H](C(=O)NCc2cc(-c3cnc(C(F)(F)F)nc3)ccc2F)N(S(=O)(=O)c2ccc(F)cc2)C1` [Example 187, (2S,4R)-4-fluoro-N-(2-fluoro-5-(2-(trifluoromethyl)pyrimidin-5-yl)benzyl)-1-((4-fluorophenyl)sulfonyl)-4-methylpyrrolidine-2-carboxamide], for which the IC50 turned out to be 0.006 µM.

With `O=C(NCc1cc(F)cc(-c2cnc(C(F)(F)F)nc2)c1)[C@@H]1[C@@H](F)CCN1S(=O)(=O)c1ccc(F)cc1` [Example 68, (2R,3S)-3-fluoro-1-(4-fluorophenyl)sulfonyl-N-[[3-fluoro-5-[2-(trifluoromethyl)pyrimidin-5-yl]phenyl]methyl]pyrrolidine-2-carboxamide], the IC50 worked out at 0.007 µM.

Take `C[C@H]1CC[C@@H](C(=O)NCc2cc(-c3ccc(C(F)(F)F)nc3)ncn2)N1S(=O)(=O)c1ccc(F)cc1` [Example 41, (2S,5S)-1-[(4-fluorobenzene)sulfonyl]-5-methyl-N-([6-[6-(trifluoromethyl)pyridin-3-yl]pyrimidin-4-yl]methyl)pyrrolidine-2-carboxamide]: the half-maximal inhibitory concentration (IC50) was 0.005 µM.

Regarding `O=C(NCc1ccnc(-c2ccc(OC(F)F)cc2)c1)[C@@H]1C[C@@H](F)CN1S(=O)(=O)c1ccc(F)cc1` [Example 160, (2S,4R)—N-[[2-[4-(difluoromethoxy)phenyl]-4-pyridyl]methyl]-4-fluoro-1-(4-fluorophenyl)sulfonyl-pyrrolidine-2-carboxamide], the IC50 is 0.086 µM.

In the case of `O=C(NCc1cc(-c2cnc(C(F)(F)F)nc2)ncc1F)C1C2CC(CC2F)N1S(=O)(=O)c1ccc(F)cc1` (stereo not drawn) [Example 185, 5-fluoro-N-((5-fluoro-2-(2-(trifluoromethyl)pyrimidin-5-yl)pyridin-4-yl)methyl)-2-(4-fluorophenylsulfonyl)-2-aza-bicyclo[2.2.1]heptane-3-carboxamide], the IC50 amounted to 0.155 µM.

For the compound `N#Cc1ccc(-c2cnc(C(F)(F)F)nc2)cc1CNC(=O)[C@@H]1C[C@@H](F)CN1S(=O)(=O)c1ccc(F)cc1` [Example 164, (2S,4R)—N-(2-cyano-5-(2-(trifluoromethyl)pyrimidin-5-yl)benzyl)-4-fluoro-1-((4-fluorophenyl)sulfonyl)pyrrolidine-2-carboxamide], the IC50 turned out to be 0.032 µM.

With `O=C(NCc1cn(-c2ccc(C(F)(F)F)nc2)nc1Cl)[C@@H]1CCN1S(=O)(=O)c1ccc(F)cc1` [Example 199, (2S)—N-([3-chloro-1-[6-(trifluoromethyl)pyridin-3-yl]-1H-pyrazol-4-yl]methyl)-1-[(4-fluorobenzene)sulfonyl]azetidine-2-carboxamide], the IC50 was 0.138 µM.

For “(2S,4R)-4-fluoro-N-[[5-fluoro-4-[5-fluoro-6-(trifluoromethyl)-3-pyridyl]-2-pyridyl]methyl]-1-(4-fluorophenyl)sulfonyl-pyrrolidine-2-carboxamide [Example 65]”, the IC50 was 0.04 µM.

For `O=C(NCc1cc(F)cc(-n2ccc(C(F)(F)F)cc2=O)c1)[C@@H]1C[C@@H](F)CN1S(=O)(=O)c1ccc(F)cc1` [Example 85, (2S,4R)-4-fluoro-N-[[3-fluoro-5-[2-oxo-4-(trifluoromethyl)-1-pyridyl]phenyl]methyl]-1-(4-fluorophenyl)sulfonyl-pyrrolidine-2-carboxamide], the IC50 was determined as 0.771 µM.

For `Cc1cnc(-c2cnc(C(F)(F)F)nc2)cc1CNC(=O)[C@@H]1C[C@@H](F)CN1S(=O)(=O)c1ccc(F)cc1` [Example 169, (2S,4R)-4-fluoro-1-[(4-fluorobenzene)sulfonyl]-N-([5-methyl-2-[2-(trifluoromethyl)pyrimidin-5-yl]pyridin-4-yl]methyl)pyrrolidine-2-carboxamide], the IC50 was determined as 0.116 µM.

For the compound `O=C(NCc1cc(Cl)nc(-c2cnc(C(F)(F)F)nc2)c1)[C@@H]1C[C@@H](F)CN1S(=O)(=O)c1ccc(F)cc1` [Example 62, (2S,4R)—N-[[2-chloro-6-[2-(trifluoromethyl)pyrimidin-5-yl]-4-pyridyl]methyl]-4-fluoro-1-(4-fluorophenyl)sulfonyl-pyrrolidine-2-carboxamide], the IC50 came to 0.014 µM.

As for `O=C(NCc1cc(F)cc(-c2ccc(C(F)(F)F)nn2)c1)[C@@H]1C[C@@H](F)CN1S(=O)(=O)c1ccc(F)cc1` [Example 89, (2S,4R)-4-fluoro-1-(4-fluorophenyl)sulfonyl-N-[[3-fluoro-5-[6-(trifluoromethyl)pyridazin-3-yl]phenyl]methyl]pyrrolidine-2-carboxamide], the half-maximal inhibitory concentration (IC50) was 0.02 µM.

Take `O=C(NCc1cc(-c2ccc(C(F)(F)F)nc2)ncn1)[C@@H]1C[C@H]2C[C@H]2N1S(=O)(=O)c1ccc(F)cc1` [Example 123, (1R,3S,5R)-2-(4-fluorophenyl)sulfonyl-N-[[6-[6-(trifluoromethyl)-3-pyridyl]pyrimidin-4-yl]methyl]-2-azabicyclo[3.1.0]hexane-3-carboxamide]: the IC50 is 0.156 µM.

`COc1nn(-c2ccc(C(F)(F)F)nc2)cc1CNC(=O)[C@]1(C)C[C@@H](F)CN1S(=O)(=O)c1ccc(F)cc1` [Example 125, (2S,4R)-4-fluoro-1-[(4-fluorobenzene)sulfonyl]-N-([3-methoxy-1-[6-(trifluoromethyl)pyridin-3-yl]-1H-pyrazol-4-yl]methyl)-2-methylpyrrolidine-2-carboxamide]: the IC50 came out at 0.009 µM.

Turning to `O=C(NCc1cn(-c2ccc(C(F)(F)F)nc2)nc1C1CC1)[C@@H]1C[C@@H](F)CN1S(=O)(=O)c1ccc(F)cc1` [Example 151, (2S,4R)—N-([3-cyclopropyl-1-[6-(trifluoromethyl)pyridin-3-yl]-1H-pyrazol-4-yl]methyl)-4-fluoro-1-[(4-fluorobenzene)sulfonyl]pyrrolidine-2-carboxamide], the IC50 was 0.161 µM.

Turning to `O=C(NCc1cc(F)cc(-n2cc(C(F)(F)F)cn2)c1)[C@@H]1C[C@@H](F)CN1S(=O)(=O)c1ccc(F)cc1` [Example 86, (2S,4R)-4-fluoro-1-(4-fluorophenyl)sulfonyl-N-[[3-fluoro-5-[4-(trifluoromethyl)pyrazol-1-yl]phenyl]methyl]pyrrolidine-2-carboxamide], the IC50 was 0.119 µM.

Regarding `O=C(NCc1cc(F)cc(-c2cnc(C(F)F)cn2)c1)[C@@H]1C[C@@H](F)CN1S(=O)(=O)c1ccc(F)cc1` [Example 90, (2S,4R)—N-[[3-[5-(difluoromethyl)pyrazin-2-yl]-5-fluoro-phenyl]methyl]-4-fluoro-1-(4-fluorophenyl)sulfonyl-pyrrolidine-2-carboxamide], the IC50 was 0.062 µM.

`N#Cc1cnc(CNC(=O)[C@@H]2C[C@@H](F)CN2S(=O)(=O)c2ccc(F)cc2)cc1-c1ccc(C(F)(F)F)nc1` [Example 71, (2S,4R)—N-[[5-cyano-4-[6-(trifluoromethyl)-3-pyridyl]-2-pyridyl]methyl]-4-fluoro-1-(4-fluorophenyl)sulfonyl-pyrrolidine-2-carboxamide]: the IC50 was 0.176 µM.

The values above are taken from patent US11236046B2, “Substituted heterocyclic sulfonamide compounds useful as TRPA1 modulators” (Genentech, Inc., priority 2013, dated 2022).
